Results from patent publication US20210181179A1, “DIAGNOSIS AND TREATMENT OF IMMUNOTHERAPY-INDUCED NEUROTOXICITY” (MEMORIAL SLOAN KETTERING CANCER CENTER, priority 2018, published 2021).

Key:
DOAY (medulloblastoma) = assay: Net production of TRP metabolites in media samples, DOAY; assay type: cell-based
HCN2 (cortical neuron) = assay: Net production of TRP metabolites in media samples, HCN2; assay type: cell-based
BV173 (B-ALL) = assay: Net production of TRP metabolites in media samples, BV173; assay type: cell-based
KARPAS231 (B-ALL) = assay: Net production of TRP metabolites in media samples, KARPAS231; assay type: cell-based
CCF-STTG1 (astrocytoma) = assay: Net production of TRP metabolites in media samples, CCF-STTG1; assay type: cell-based, human
Text: (§1) Under physiological conditions in the brain, kynurenine metabolism is driven by microglial cells and astrocytes with preferential production of QUIN and KA respectively. […] This may have been due to T cells producing cytokines and/or intermediate metabolites that are further metabolized to QUIN by the cells. In order to identify specific factors that may lead to tryptophan-kynurenine pathway up-regulation for QUIN production, we tested a panel of cytokine and chemokines implicated in NTX and CRS. […] We initially evaluated the panel of the select factors individually (FIGS. 16 A-B). We selected several cytokines based on their effect on rate-limiting enzymes for QUIN production. These included IFNγ, TNF, […], CXCL10 and […]. These enzymes were selected based on their regulation of key enzymes, KMO and KYNU, which may lead to supraphysiological accumulation of QUIN. These factors were further evaluated, individually or in combination, on astrocytoma, microglial, and primary monocyte-derived macrophages for mRNA levels of kynurenine pathway enzymes and kynurenine metabolites production (FIG. 17).

RS4; 11 (B-ALL) = assay: Net production of TRP metabolites in media samples, RS4; 11; assay type: cell-based
ALL3.1 (B-ALL) = assay: Net production of TRP metabolites in media samples, ALL3.1; assay type: cell-based
SUP-B15 (B-ALL) = assay: Net production of TRP metabolites in media samples, SUP-B15; assay type: cell-based
HMC3 (microglia) = assay: Net production of TRP metabolites in media samples, HMC3; assay type: cell-based, human
Text: as §1

CCRF-SB (B-ALL) = assay: Net production of TRP metabolites in media samples, CCRF-SB; assay type: cell-based
THP-1 (monocyte) = assay: Net production of TRP metabolites in media samples, THP-1; assay type: cell-based

IFNα
Net production of TRP metabolites in media samples: 3-HK (DOAY (medulloblastoma)): −13.46 ± 0.5 | Net production of TRP metabolites in media samples: HAA (DOAY (medulloblastoma)): 11.62 ± 0.8 | Net production of TRP metabolites in media samples: KA (DOAY (medulloblastoma)): 10.28 ± 3.2 | Net production of TRP metabolites in media samples: KYN (DOAY (medulloblastoma)): 263.2 ± 20^ | Net production of TRP metabolites in media samples: QUIN (DOAY (medulloblastoma)): 54.5 ± 21.8 | Net production of TRP metabolites in media samples: 3-HK (HCN2 (cortical neuron)): −4.46 ± 8.2 | Net production of TRP metabolites in media samples: HAA (HCN2 (cortical neuron)): 5.38 ± 0.4 | Net production of TRP metabolites in media samples: KA (HCN2 (cortical neuron)): 3.26 ± 6.1 | Net production of TRP metabolites in media samples: KYN (HCN2 (cortical neuron)): 105.24 ± 37 | Net production of TRP metabolites in media samples: QUIN (HCN2 (cortical neuron)): 13.26 ± 31.6 | Net production of TRP metabolites in media samples: 3-HK (BV173 (B-ALL)): 9.94 ± 8.7 | Net production of TRP metabolites in media samples: KA (BV173 (B-ALL)): −3.56 ± 4.1 | Net production of TRP metabolites in media samples: KYN (BV173 (B-ALL)): 257.66 ± 175.9 | Net production of TRP metabolites in media samples: QUIN (BV173 (B-ALL)): 6.36 ± 32.9 | Net production of TRP metabolites in media samples: 3-HK (KARPAS231 (B-ALL)): 5.48 ± 2.1 | Net production of TRP metabolites in media samples: HAA (KARPAS231 (B-ALL)): 30.76 ± 4.2 | Net production of TRP metabolites in media samples: KA (KARPAS231 (B-ALL)): −9.3 ± 5.1 | Net production of TRP metabolites in media samples: KYN (KARPAS231 (B-ALL)): 200.48 ± 77.6 | Net production of TRP metabolites in media samples: QUIN (KARPAS231 (B-ALL)): −42.74 ± 33.3 | Net production of TRP metabolites in media samples: 3-HK (CCF-STTG1 (astrocytoma)): −13.12 ± 0.55 | Net production of TRP metabolites in media samples: HAA (CCF-STTG1 (astrocytoma)): 10.54 ± 0.8 | Net production of TRP metabolites in media samples: KA (CCF-STTG1 (astrocytoma)): 3.46 ± 1 | Net production of TRP metabolites in media samples: KYN (CCF-STTG1 (astrocytoma)): 4734.38 ± 128 | Net production of TRP metabolites in media samples: QUIN (CCF-STTG1 (astrocytoma)): 15.16 ± 5.5 | Net production of TRP metabolites in media samples: 3-HK (RS4; 11 (B-ALL)): −1.96 ± 1.6 | Net production of TRP metabolites in media samples: KA (RS4; 11 (B-ALL)): −6.3 ± 2.3 | Net production of TRP metabolites in media samples: KYN (RS4; 11 (B-ALL)): −14 ± 22.7 | Net production of TRP metabolites in media samples: QUIN (RS4; 11 (B-ALL)): 40.46 ± 24^ | Net production of TRP metabolites in media samples: 3-HK (ALL3.1 (B-ALL)): 6.76 ± 6.7 | Net production of TRP metabolites in media samples: KA (ALL3.1 (B-ALL)): −1.1 ± 3.4 | Net production of TRP metabolites in media samples: KYN (ALL3.1 (B-ALL)): 49.4 ± 114.2 | Net production of TRP metabolites in media samples: QUIN (ALL3.1 (B-ALL)): −55.38 ± 21.2 | Net production of TRP metabolites in media samples: 3-HK (SUP-B15 (B-ALL)): 19.38 ± 16.3 | Net production of TRP metabolites in media samples: HAA (SUP-B15 (B-ALL)): 7.32 ± 1.1 | Net production of TRP metabolites in media samples: KA (SUP-B15 (B-ALL)): −10.36 ± 4.4 | Net production of TRP metabolites in media samples: KYN (SUP-B15 (B-ALL)): 292.4 ± 186.6 | Net production of TRP metabolites in media samples: QUIN (SUP-B15 (B-ALL)): −79.6 ± 31.2 | Net production of TRP metabolites in media samples: 3-HK (HMC3 (microglia)): 10.4 ± 18.6 | Net production of TRP metabolites in media samples: HAA (HMC3 (microglia)): 0.56 ± 1.8 | Net production of TRP metabolites in media samples: KA (HMC3 (microglia)): 4.48 ± 3.1 | Net production of TRP metabolites in media samples: KYN (HMC3 (microglia)): 899.26 ± 383^ | Net production of TRP metabolites in media samples: QUIN (HMC3 (microglia)): 42 ± 18.5 | Net production of TRP metabolites in media samples: 3-HK (CCRF-SB (B-ALL)): 1.16 ± 6.5 | Net production of TRP metabolites in media samples: HAA (CCRF-SB (B-ALL)): 5.3 ± 0.2 | Net production of TRP metabolites in media samples: KA (CCRF-SB (B-ALL)): −6.78 ± 4^ | Net production of TRP metabolites in media samples: KYN (CCRF-SB (B-ALL)): 93.56 ± 90.1 | Net production of TRP metabolites in media samples: QUIN (CCRF-SB (B-ALL)): −47.16 ± 28.1 | Net production of TRP metabolites in media samples: 3-HK (THP-1 (monocyte)): 0.62 ± 1.4 | Net production of TRP metabolites in media samples: KA (THP-1 (monocyte)): −8.98 ± 2.2 | Net production of TRP metabolites in media samples: KYN (THP-1 (monocyte)): 101.24 ± 17.6 | Net production of TRP metabolites in media samples: QUIN (THP-1 (monocyte)): 12.08 ± 32.1

Il6: cytokine
Net production of TRP metabolites in media samples: 3-HK (DOAY (medulloblastoma)): −11.68 ± 1.2 | Net production of TRP metabolites in media samples: HAA (DOAY (medulloblastoma)): 11.14 ± 0.8 | Net production of TRP metabolites in media samples: KA (DOAY (medulloblastoma)): 6.16 ± 4.2 | Net production of TRP metabolites in media samples: KYN (DOAY (medulloblastoma)): 41.5 ± 21.6 | Net production of TRP metabolites in media samples: QUIN (DOAY (medulloblastoma)): 29.66 ± 29.4 | Net production of TRP metabolites in media samples: 3-HK (HCN2 (cortical neuron)): 4.96 ± 0.8 | Net production of TRP metabolites in media samples: HAA (HCN2 (cortical neuron)): 5.48 ± 0.8 | Net production of TRP metabolites in media samples: KA (HCN2 (cortical neuron)): 0.86 ± 2.1 | Net production of TRP metabolites in media samples: KYN (HCN2 (cortical neuron)): −2.08 ± 19^ | Net production of TRP metabolites in media samples: QUIN (HCN2 (cortical neuron)): 0.94 ± 12.9 | Net production of TRP metabolites in media samples: 3-HK (BV173 (B-ALL)): 12.32 ± 11.8 | Net production of TRP metabolites in media samples: KA (BV173 (B-ALL)): −3 ± 3 | Net production of TRP metabolites in media samples: KYN (BV173 (B-ALL)): 244.92 ± 172.4 | Net production of TRP metabolites in media samples: QUIN (BV173 (B-ALL)): 13.06 ± 15.6 | Net production of TRP metabolites in media samples: 3-HK (KARPAS231 (B-ALL)): 1.48 ± 2.2 | Net production of TRP metabolites in media samples: HAA (KARPAS231 (B-ALL)): 8.68 ± 1.5 | Net production of TRP metabolites in media samples: KA (KARPAS231 (B-ALL)): −7.58 ± 4.2 | Net production of TRP metabolites in media samples: KYN (KARPAS231 (B-ALL)): −77.44 ± 27.4 | Net production of TRP metabolites in media samples: QUIN (KARPAS231 (B-ALL)): −37.78 ± 29.5 | Net production of TRP metabolites in media samples: 3-HK (CCF-STTG1 (astrocytoma)): −8.16 ± 2.2 | Net production of TRP metabolites in media samples: HAA (CCF-STTG1 (astrocytoma)): 11 ± 0.4 | Net production of TRP metabolites in media samples: KA (CCF-STTG1 (astrocytoma)): 5.16 ± 1.1 | Net production of TRP metabolites in media samples: KYN (CCF-STTG1 (astrocytoma)): 4385.94 ± 43.3 | Net production of TRP metabolites in media samples: QUIN (CCF-STTG1 (astrocytoma)): 17.06 ± 11^ | Net production of TRP metabolites in media samples: 3-HK (RS4; 11 (B-ALL)): −1.36 ± 1.1 | Net production of TRP metabolites in media samples: KA (RS4; 11 (B-ALL)): −6.52 ± 2.3 | Net production of TRP metabolites in media samples: KYN (RS4; 11 (B-ALL)): −3.36 ± 38.7 | Net production of TRP metabolites in media samples: QUIN (RS4; 11 (B-ALL)): 16.28 ± 63.8 | Net production of TRP metabolites in media samples: 3-HK (ALL3.1 (B-ALL)): 1.48 ± 5.3 | Net production of TRP metabolites in media samples: KA (ALL3.1 (B-ALL)): −2.36 ± 6^ | Net production of TRP metabolites in media samples: KYN (ALL3.1 (B-ALL)): 95.16 ± 123.3 | Net production of TRP metabolites in media samples: QUIN (ALL3.1 (B-ALL)): 8.66 ± 36.5 | Net production of TRP metabolites in media samples: 3-HK (SUP-B15 (B-ALL)): 16.58 ± 13.5 | Net production of TRP metabolites in media samples: HAA (SUP-B15 (B-ALL)): 6.44 ± 0.8 | Net production of TRP metabolites in media samples: KA (SUP-B15 (B-ALL)): −6.4 ± 3 | Net production of TRP metabolites in media samples: KYN (SUP-B15 (B-ALL)): 309 ± 182 | Net production of TRP metabolites in media samples: QUIN (SUP-B15 (B-ALL)): −65.6 ± 16^ | Net production of TRP metabolites in media samples: 3-HK (HMC3 (microglia)): 8.44 ± 18 | Net production of TRP metabolites in media samples: HAA (HMC3 (microglia)): 0.12 ± 2.4 | Net production of TRP metabolites in media samples: KA (HMC3 (microglia)): 6.3 ± 3.8 | Net production of TRP metabolites in media samples: KYN (HMC3 (microglia)): 545.08 ± 313^ | Net production of TRP metabolites in media samples: QUIN (HMC3 (microglia)): 61.04 ± 23.7 | Net production of TRP metabolites in media samples: 3-HK (CCRF-SB (B-ALL)): 27.64 ± 22.5 | Net production of TRP metabolites in media samples: HAA (CCRF-SB (B-ALL)): 9.34 ± 2.1 | Net production of TRP metabolites in media samples: KA (CCRF-SB (B-ALL)): −6.88 ± 1.5 | Net production of TRP metabolites in media samples: KYN (CCRF-SB (B-ALL)): 438.12 ± 308.6 | Net production of TRP metabolites in media samples: QUIN (CCRF-SB (B-ALL)): −51.14 ± 13 ^ | Net production of TRP metabolites in media samples: 3-HK (THP-1 (monocyte)): 0.5 ± 1.2 | Net production of TRP metabolites in media samples: KA (THP-1 (monocyte)): −6.74 ± 6.2 | Net production of TRP metabolites in media samples: KYN (THP-1 (monocyte)): 176.36 ± 33 | Net production of TRP metabolites in media samples: QUIN (THP-1 (monocyte)): −5.14 ± 52.9
